# In patent publication US12258336B2, “Preparation of seimicarbazide-sensitive amine oxidase inhibitor and use thereof” (SHANGHAI ENNOVABIO PHARMACEUTICALS CO., LTD., priority 2018, dated 2025):
# Target: T1, Recombinant human SSAO protein (Homo sapiens, UniProt Q16853)
# T1 construct: Eli Lilly (provided, not a catalogue product)
# T1 sequence (Q16853 1-763): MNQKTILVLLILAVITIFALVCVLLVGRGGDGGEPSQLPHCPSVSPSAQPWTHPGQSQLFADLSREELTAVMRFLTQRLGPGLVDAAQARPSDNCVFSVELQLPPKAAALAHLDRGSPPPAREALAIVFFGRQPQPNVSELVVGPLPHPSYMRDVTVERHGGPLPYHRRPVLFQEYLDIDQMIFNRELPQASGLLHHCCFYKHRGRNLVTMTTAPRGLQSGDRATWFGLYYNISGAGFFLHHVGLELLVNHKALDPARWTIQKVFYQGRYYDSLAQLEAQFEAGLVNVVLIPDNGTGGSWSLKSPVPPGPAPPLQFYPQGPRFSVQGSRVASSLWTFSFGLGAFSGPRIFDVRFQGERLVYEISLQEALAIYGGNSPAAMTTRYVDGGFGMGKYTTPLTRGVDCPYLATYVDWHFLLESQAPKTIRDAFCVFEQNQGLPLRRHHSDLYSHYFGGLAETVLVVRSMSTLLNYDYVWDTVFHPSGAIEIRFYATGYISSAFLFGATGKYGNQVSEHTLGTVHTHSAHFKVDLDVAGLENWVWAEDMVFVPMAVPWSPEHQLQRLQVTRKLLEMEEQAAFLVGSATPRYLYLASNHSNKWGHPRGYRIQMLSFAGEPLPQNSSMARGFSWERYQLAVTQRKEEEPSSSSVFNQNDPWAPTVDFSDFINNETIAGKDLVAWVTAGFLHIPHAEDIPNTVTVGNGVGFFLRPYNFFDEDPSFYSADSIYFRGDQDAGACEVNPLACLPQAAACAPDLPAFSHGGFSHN
# Test: In vitro inhibitory activity on SSAO/VAP-1 (MAO-Glo assay), human
# Type: biochemical
# Experimental: This assay was used to evaluate the in vitro inhibitory activity of the compounds on SSAO/VAP-1 of different species. Recombinant human SSAO protein, mouse SSAO protein or rat SSAO protein (provided by Eli Lilly) were used. The enzyme activity detection kit, MAO-Glo Assay kit (V1402) was purchased from Promega. Enzyme reaction buffer (50 mM HEPES, 120 mM NaCl, 5 mM KCl, 2 mM CaCl2, 1.4 mM MgCl2, 0.001% Tween-20, pH7.4) was prepared. The test compound was dissolved in DMSO and diluted by 3-fold concentration in gradient. The final concentration of test compound in a 10 μL reaction system was 1 μM to 0.05 nM when SSAO was detected. The content of DMSO in the detection reaction was 1%. After the solution of test compound in DMSO was diluted in the enzyme reaction buffer at a volume ratio of 1:25, 2.5 μL of which was added to each well of detection plate, two replicates for each concentration. 5 μL of SSAO protein diluted in the enzyme reaction buffer was added to each well, the final concentration of which was 10 nM to 80 nM in 10 μL reaction system. The mixture was incubated at room temperature for 10 minutes. 2.5 μL of the reaction substrate diluted in the enzyme reaction buffer was added to each well, the final concentration of which was 10 μM in 10 μL reaction system. After the mixture was reacted at room temperature for 120 minutes, 10 μL of detection reagent was added to each well. The reaction solution was incubated for 20 minutes at room temperature, and the plate was read with Synergy Neo 2 for detection. The value was converted into inhibition rate by the following formula: Inhibition rate=(Signalpositive−Signaltest)/(Signalpositive−Signalnegative)×100%
# Signalpositive was positive control without test compound. Signalnegative was negative control without test compound and SSAO enzyme, and Signaltest was detection value of each compound at different concentrations. IC50 value was calculated by using 4 parameter curve fitting.
row,SMILES,IC50
1,COC1CC2CC1CN2c1ncc(OC/C(=C/F)CN)cn1 (centres unmarked) [Example 2],< 0.01 µM
2,NC/C(=C\F)COc1cnc(N2CCN(c3cnc(N4CCN(C5COC5)CC4)nc3)CC2)nc1 [Example 9],< 0.01 µM
3,N#Cc1cc(OC/C(=C/F)CN)cnc1N1CCN(C2COC2)CC1 [Example 7],> 0.05 µM
4,CC1(C)CN(c2ncc(OC/C(=C/F)CN)cn2)CCN1C1COC1 [Example 10],0.01 to 0.05 µM
5,NC/C(=C\F)COc1cnc(N2CC3CCC(C2)N3C2COC2)nc1 [Example 6],0.01 to 0.05 µM
6,NC/C(=C\F)COc1cnc(N2CCC3(CC2)COC3)nc1 [Example 3],< 0.01 µM
7,CC1(C)CN(C2COC2)CCN1c1ncc(OC/C(=C/F)CN)cn1 [Example 5],0.01 to 0.05 µM
8,"NC/C(=C\F)COc1cnc(N2CCN(C3COC3)CC2)nc1 [Example 4, (E)-3-fluoro-2-(((2-(4-(oxbutan-3-yl)piperazin-1-yl)pyrimidin-5-yl)oxo)methyl)prop-2-en-1-amine]",< 0.01 µM
9,COC1CC2CCC(C1)N2c1ncc(OC/C(=C/F)CN)cn1 (centres unmarked) [Example 12],< 0.01 µM
10,"CC1CN(c2ncc(OC/C(=C/F)CN)cn2)CC(C)N1C1COC1 (centres unmarked) [Example 1, (E)-2-(((2-(3,5-dimethyl-4-(oxbutan-3-yl)piperazin-1-yl)pyrimidin-5-yl)oxo)methyl)-3-fluoroprop-2-en-1-amine]",< 0.01 µM
11,NC/C(=C/F)COc1cnc(N2CCN(C3COC3)CC2)nc1 [Example 8],< 0.01 µM
